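Test compounds were applied to cells in 96-well plates for 48 hours at 5 doses. TGI denotes the concentration required for complete inhibition of growth.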

The results in this text go back to PubChem BioAssay (NCI).

Among the test systems are ACHN renal; BT-549 breast; EKVX NSCLC; KM12 colon; LOX IMVI melanoma; M14 melanoma; MOLT-4 leukemia; NCI-H23 lung; OVCAR-8 ovarian; SF-268 CNS; SF-295 CNS; SK-MEL-28 melanoma; SK-OV-3 ovarian; SNB-75 CNS; UACC-257 melanoma; UACC-62 melanoma; UO-31 renal; MCF7 breast; SK-MEL-2 melanoma.
Common to all, as to assay: NCI anticancer screen, dose series, 48 h

In the case of `Cn1c(=O)c2[nH]c(/N=N\n3ccc4ccccc43)nc2n(C)c1=O`, the TGI in the assay with ACHN renal, in the assay with BT-549 breast, in the assay with EKVX NSCLC, in the assay with KM12 colon, with LOX IMVI melanoma and with M14 melanoma was > 100 µM throughout. Moreover, the TGI in the assay with MOLT-4 leukemia, in the assay with NCI-H23 lung, with OVCAR-8 ovarian, in the assay on SF-268 CNS, in the assay with SF-295 CNS and in the assay with SK-MEL-28 melanoma was > 100 µM in each case. For the same compound, the TGI with SK-OV-3 ovarian, with SNB-75 CNS, with UACC-257 melanoma, in the assay with UACC-62 melanoma and with UO-31 renal was > 100 µM each time.
`O=C1OC(C2Cc3cc4c(cc3C2=O)CCC4)c2ccccc21` (stereo not drawn): the TGI in the assay with ACHN renal, with EKVX NSCLC, in the assay on KM12 colon, in the assay with LOX IMVI melanoma, in the assay on M14 melanoma and in the assay on MCF7 breast was > 100 µM in each case. Besides, the TGI in the assay with MOLT-4 leukemia was 64.4 µM; in the assay on NCI-H23 lung, > 100 µM; in the assay on OVCAR-8 ovarian, > 100 µM; in the assay on SF-268 CNS, > 100 µM; in the assay with SF-295 CNS, > 100 µM; in the assay on SK-MEL-2 melanoma, > 100 µM. In addition, the TGI with SK-MEL-28 melanoma, in the assay on SK-OV-3 ovarian, in the assay on SNB-75 CNS, in the assay with UACC-257 melanoma, in the assay on UACC-62 melanoma and in the assay with UO-31 renal was > 100 µM each time.
With `C/C(=C/CNc1ncnc2c1ncn2CCC(=O)O)CO`, the TGI in the assay with ACHN renal, with EKVX NSCLC, with KM12 colon, in the assay on LOX IMVI melanoma, in the assay on M14 melanoma and in the assay on MCF7 breast was > 100 µM throughout. In addition, the TGI in the assay on MOLT-4 leukemia, with NCI-H23 lung, with OVCAR-8 ovarian, with SF-268 CNS, in the assay on SF-295 CNS and with SK-MEL-28 melanoma was > 100 µM throughout. For the same compound, the TGI in the assay on SK-OV-3 ovarian, in the assay on SNB-75 CNS, in the assay with UACC-257 melanoma, with UACC-62 melanoma and with UO-31 renal was > 100 µM throughout.
In the case of `Fc1ccc(C2(CCCN3CCc4[nH]c5cc(F)ccc5c4C3)OCCO2)cc1`, the TGI worked out at 23.5 µM in the assay with ACHN renal; 29.1 µM in the assay with EKVX NSCLC; 29.8 µM in the assay on KM12 colon; 25.4 µM in the assay with LOX IMVI melanoma; 7.15 µM with M14 melanoma; 25.3 µM in the assay on MCF7 breast. The TGI in the assay on MOLT-4 leukemia was determined as 21.9 µM; with NCI-H23 lung, 31.7 µM; with OVCAR-8 ovarian it was 33.9 µM; in the assay on SF-268 CNS, 30.9 µM; in the assay on SF-295 CNS it was 27.4 µM; in the assay on SK-MEL-28 melanoma, 25.6 µM. Besides, the TGI in the assay on SK-OV-3 ovarian stood at 26.7 µM; in the assay with SNB-75 CNS, 25.1 µM; in the assay with UACC-257 melanoma, 16.5 µM; in the assay on UACC-62 melanoma it was 26.7 µM; in the assay on UO-31 renal it was 10.8 µM.
For `CCN(CC)C(=O)C1=C(C)NC(C)=C(C(=O)N(CC)CC)C1`, the TGI in the assay with ACHN renal, with EKVX NSCLC, in the assay on KM12 colon, in the assay with LOX IMVI melanoma, with M14 melanoma and in the assay with MCF7 breast was > 100 µM throughout. For the same compound, the TGI in the assay on MOLT-4 leukemia, in the assay on NCI-H23 lung, with SF-268 CNS, in the assay on SF-295 CNS, in the assay with SK-MEL-2 melanoma and in the assay with SK-MEL-28 melanoma was > 100 µM throughout. The TGI in the assay on SK-OV-3 ovarian was > 100 µM; with SNB-75 CNS it was 93.4 µM; in the assay with UACC-257 melanoma, > 100 µM; in the assay on UACC-62 melanoma it was > 100 µM; in the assay on UO-31 renal, > 100 µM.
Consider `CCOC(=O)CC/C(C)=N\n1c(Cc2ccc(Cl)cc2)n[nH]c1=O`, for which the TGI in the assay with ACHN renal, in the assay with BT-549 breast, in the assay with KM12 colon, in the assay with LOX IMVI melanoma, with M14 melanoma and in the assay with MCF7 breast was > 100 µM each time. Also, the TGI in the assay on MOLT-4 leukemia, in the assay with NCI-H23 lung, in the assay on OVCAR-8 ovarian, in the assay with SF-268 CNS, in the assay with SF-295 CNS and with SK-MEL-2 melanoma was > 100 µM in each case. Further, the TGI in the assay with SK-MEL-28 melanoma, in the assay on SNB-75 CNS, with UACC-257 melanoma, with UACC-62 melanoma and with UO-31 renal was > 100 µM each time.
For the compound `N#Cc1cc2c(n(C3OC(CO)C(O)C(O)C3O)c1=S)CCCCC2` (stereo not drawn), the TGI with ACHN renal, with BT-549 breast, in the assay on KM12 colon, in the assay with LOX IMVI melanoma, with M14 melanoma and in the assay with MCF7 breast was > 100 µM each time. Further, the TGI in the assay with MOLT-4 leukemia, in the assay with NCI-H23 lung, in the assay with OVCAR-8 ovarian, in the assay on SF-268 CNS, in the assay on SF-295 CNS and in the assay on SK-MEL-2 melanoma was > 100 µM throughout. The TGI in the assay on SK-MEL-28 melanoma, with SNB-75 CNS, in the assay on UACC-257 melanoma, in the assay with UACC-62 melanoma and in the assay on UO-31 renal was > 100 µM throughout.
Turning to `COC(=O)C1=C(O)C(C(=O)OC)[C@]2(O)[C@H](C(=O)OC)[C@H]1C[C@@H](c1ccccc1OC)[C@H]2C(=O)OC` (stereo partly drawn), the TGI in the assay with ACHN renal came to 21.3 µM; with BT-549 breast it was 11.2 µM; with EKVX NSCLC it was 29.6 µM; in the assay on KM12 colon it was 21.9 µM; in the assay with LOX IMVI melanoma it was 9.35 µM; in the assay on M14 melanoma it was 10.2 µM. Further, the TGI with MOLT-4 leukemia was determined as 25.5 µM; in the assay on NCI-H23 lung it was 14.8 µM; in the assay with OVCAR-8 ovarian, 11.8 µM; with SF-268 CNS, 16.5 µM; in the assay on SF-295 CNS, 25.6 µM; with SK-MEL-2 melanoma, 20.1 µM. Moreover, the TGI in the assay on SK-MEL-28 melanoma was 27.1 µM; with SK-OV-3 ovarian it was > 50.9 µM; with SNB-75 CNS, > 71.3 µM; with UACC-257 melanoma, > 51.6 µM; with UACC-62 melanoma it was 18.3 µM; in the assay on UO-31 renal it was 21.6 µM.
